Tests used:
Trichoderma = assay: Trichoderma-loaded feedstocks co-cultured with engineered Streptomyces; format: cell-based; conditions: feedstocks loaded with Trichoderma spores, no production fungus
Experimental: The efficacy of inhibitory properties was tested in feedstocks without the addition of the fungus. Feedstocks were loaded with Trichoderma spores, a common mold contaminate. Engineered Streptomyces was then co-cultured in these contaminated feedstocks, and the inhibitory effects were recorded.

Ascomycete contaminants = assay: natamycin inhibition, in vitro liquid media culture; format: cell-based; conditions: cultured in vitro (liquid media)
Source text: Streptomyces natalensis naturally produces low levels of pimaricin, also known as natamycin, which is a fungicide with the ability to bind to sterols found in fungal cell membranes, thus making the cell wall permeable and lysing the cell. This fungicide has greater activity against Ascomycete contaminants, versus production fungi Ganoderma or Trametes. Natamycin's affinity for non-basidiomycetes species make this particular antifungal an attractive target for expression during cultivated manufacturing.
By up-regulating the expression of pimM, the total yield of natamycin produced by our Streptomyces natalensis strains was increased. In this respect, natamycin production in wild type Streptomyces natalensis […] the effective range of inhibition (5 ug/mL) when cultured in vitro (liquid media). […] Engineering a bacterium strain with increased natamycin potency helps to reduce the bacterial loading needed for substrate bioburden mitigation, thus further reducing process and material cost.

C[C@@H]1C/C=C/C=C/C=C/C=C/[C@H](O[C@@H]2O[C@H](C)[C@@H](O)[C@H](N)[C@@H]2O)C[C@@H]2O[C@](O)(C[C@@H](O)C[C@H]3O[C@@H]3/C=C/C(=O)O1)C[C@H](O)[C@H]2C(=O)O [natamycin]
inhibitory effect of Trichoderma in feedstocks as a function of natamycin expression (Trichoderma): strong linear inhibitory effect | effective range of inhibition (Ascomycete contaminants): 5 µg/mL

— patent US11920126B2, “Bio-manufacturing process” (priority 2018, dated 2024)
